Test results: patent US10670605B2, “Cysteine reactive probes and uses thereof” (The Scripps Research Institute, priority 2015, dated 2020)
Counter-ions that a name gives are not always drawn.

Key:
[1] = tested on: Nrf2(+/+) and (-/-) T cells; test: CD25 expression in Nrf2(+/+) and (-/-) T cells; type: cell-based, mouse; conditions: 24 h
Procedure: C57BL/6J and Nrf2^-/- mice (Stock No:017009; […]: Jackson Labs) were bred and maintained in a closed breeding facility at The Scripps Research Institute and were 6-8 weeks old when used in experiments. All mice were used in accordance with guidelines from the Institutional Animal Care and Use Committee of The Scripps Research Institute. Spleens were harvested from female mice, perfused with collagenase, and incubated at 37° C. with 5% CO2 for 30 min. After this time, the spleens were homogenized. Cells that passed through a 100 μm cell strainer were collected and washed with RPMI. T cells were isolated from the splenocytes using the EasySepTM Mouse T cell Isolation Kit (19851; […]) according to manufacturer's instructions. 96-well plates were coated with anti-CD3 (1:200; BioXcell) and anti-CD28 (1:500; 302933; BioLegend) in PBS (100 μL/well) overnight at 4° C. The plates were then washed twice with PBS and to each well was added 500,000 primary T cells in 100 μL of RPMI supplemented with 10% FBS, glutamine, and Pen-Strep. Cells were then treated with 100 μL of media containing compound at the indicated concentrations (final well volume of 200 μL). Cells were left at 37° C. in a 5% CO2 incubator for the indicated periods of time and harvested by centrifugation (500 g, 8 min, 4° C.), followed by washing with PBS. […] Data was then analyzed with FlowJo software (Treestar Inc.). […]

PRMT1 (C109) = target: T1, PRMT1 (C109) (Homo sapiens, UniProt Q99873); test: Blockade of IA-rhodamine labeling of recombinant PRMT1 (gel-based ABPP); type: binding
T1 construct: Full length PRMT1 subcloned into pET45b (+) (Novagen) was previously generated by the Cravatt lab; inferred from Ni-NTA purification and the pET45b vector; made in house; host or cells: E. coli BL21(DE3)

[2] = target: T2, cysteines in MDA-MB-231 and Ramos cells (Homo sapiens, UniProt P42695); test: Competitive isoTOP-ABPP in situ (fragment-treated cells); type: cell-based; conditions: 200 μM, insitu
T2 sequence (P42695 1-1498): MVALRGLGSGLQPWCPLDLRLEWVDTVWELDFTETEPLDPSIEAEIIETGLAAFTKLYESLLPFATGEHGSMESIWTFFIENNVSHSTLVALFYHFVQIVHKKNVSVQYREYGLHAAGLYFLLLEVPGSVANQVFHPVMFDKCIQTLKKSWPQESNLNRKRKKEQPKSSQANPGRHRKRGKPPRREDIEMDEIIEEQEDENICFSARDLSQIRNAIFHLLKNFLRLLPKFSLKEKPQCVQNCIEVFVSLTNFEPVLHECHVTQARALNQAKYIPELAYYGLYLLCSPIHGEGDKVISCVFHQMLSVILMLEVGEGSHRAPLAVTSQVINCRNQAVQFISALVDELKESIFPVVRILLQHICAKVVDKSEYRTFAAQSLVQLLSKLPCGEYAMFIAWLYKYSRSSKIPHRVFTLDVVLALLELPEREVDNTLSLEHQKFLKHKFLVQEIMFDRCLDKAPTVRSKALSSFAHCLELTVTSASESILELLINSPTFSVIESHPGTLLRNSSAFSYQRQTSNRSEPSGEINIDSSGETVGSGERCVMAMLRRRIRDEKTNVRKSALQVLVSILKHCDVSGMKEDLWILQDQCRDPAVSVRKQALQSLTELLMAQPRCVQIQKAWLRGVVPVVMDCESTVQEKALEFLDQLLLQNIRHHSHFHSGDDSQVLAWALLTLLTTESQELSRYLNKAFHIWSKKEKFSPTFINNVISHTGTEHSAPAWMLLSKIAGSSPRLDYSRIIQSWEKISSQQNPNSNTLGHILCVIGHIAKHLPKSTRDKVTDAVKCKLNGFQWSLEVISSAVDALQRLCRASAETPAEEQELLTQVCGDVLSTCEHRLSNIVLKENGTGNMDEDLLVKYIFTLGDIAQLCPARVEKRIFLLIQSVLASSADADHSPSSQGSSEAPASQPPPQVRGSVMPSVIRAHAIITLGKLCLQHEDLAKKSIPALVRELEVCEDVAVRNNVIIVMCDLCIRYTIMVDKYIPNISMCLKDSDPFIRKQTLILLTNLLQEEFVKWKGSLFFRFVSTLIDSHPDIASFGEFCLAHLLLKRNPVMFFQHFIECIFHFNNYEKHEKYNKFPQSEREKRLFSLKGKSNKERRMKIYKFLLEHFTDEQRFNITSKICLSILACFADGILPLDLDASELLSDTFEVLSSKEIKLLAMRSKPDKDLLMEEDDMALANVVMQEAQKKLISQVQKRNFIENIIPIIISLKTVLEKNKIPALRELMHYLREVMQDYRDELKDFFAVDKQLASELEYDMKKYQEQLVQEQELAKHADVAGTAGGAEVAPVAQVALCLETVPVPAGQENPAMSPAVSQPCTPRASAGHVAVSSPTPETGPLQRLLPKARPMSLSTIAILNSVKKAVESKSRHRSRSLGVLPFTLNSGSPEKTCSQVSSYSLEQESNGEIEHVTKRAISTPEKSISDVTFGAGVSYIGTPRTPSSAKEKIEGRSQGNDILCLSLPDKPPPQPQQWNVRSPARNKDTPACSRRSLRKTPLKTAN

IDH1 = target: T3, IDH1 (Homo sapiens, UniProt O75874); test: IDH1 NADP assay; type: biochemical
T3 construct: Full length cDNAs encoding for IDH1 (Open Biosystems, Clone ID: 3880331) and IMPDH2; His6 (C); made in house; host or cells: E. coli BL21(DE3)
Procedure: To 25 μL of this mixture was added 1 μL of the indicated compound (25× stock solution in DMSO) and the lysates were incubated for 1 h at room temperature in clear 96 well plates (Corning® Costar®). […] Absorbance was measured for 45 minutes and the relative activities were calculated from the change in absorbance for the linear portion of the curve.

T1 sequence (Q99873 11-371 limits assumed): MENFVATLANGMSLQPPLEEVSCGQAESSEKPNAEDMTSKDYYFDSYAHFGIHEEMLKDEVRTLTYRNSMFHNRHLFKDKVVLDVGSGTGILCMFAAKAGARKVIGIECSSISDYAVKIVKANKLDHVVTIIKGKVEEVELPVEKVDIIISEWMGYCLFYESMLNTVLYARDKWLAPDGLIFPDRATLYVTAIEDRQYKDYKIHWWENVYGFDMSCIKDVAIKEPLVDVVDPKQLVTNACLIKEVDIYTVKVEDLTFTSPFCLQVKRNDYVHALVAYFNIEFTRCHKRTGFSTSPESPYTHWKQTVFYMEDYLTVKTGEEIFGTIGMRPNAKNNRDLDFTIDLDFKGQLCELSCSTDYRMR
T3 sequence (O75874 whole entry): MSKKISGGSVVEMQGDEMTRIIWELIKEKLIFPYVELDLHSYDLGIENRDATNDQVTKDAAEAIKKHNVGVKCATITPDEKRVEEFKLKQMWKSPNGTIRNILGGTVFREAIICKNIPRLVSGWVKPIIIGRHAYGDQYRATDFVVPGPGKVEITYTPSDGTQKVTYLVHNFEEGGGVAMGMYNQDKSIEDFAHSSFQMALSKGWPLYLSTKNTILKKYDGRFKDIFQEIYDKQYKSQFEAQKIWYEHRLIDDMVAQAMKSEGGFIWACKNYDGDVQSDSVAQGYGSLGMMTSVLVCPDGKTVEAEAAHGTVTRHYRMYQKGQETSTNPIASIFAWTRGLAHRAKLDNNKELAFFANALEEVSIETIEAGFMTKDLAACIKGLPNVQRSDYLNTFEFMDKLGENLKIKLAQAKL

For COC(=O)/C=C/C(=O)OC [DMF, dimethyl fumarate], the “sensitivity of activation of Nrf2(+/+) and (-/-) T cells” value [1] was “similarly sensitive”.

O=C(CCl)Nc1cc(C(F)(F)F)cc(C(F)(F)F)c1 [compound 3] was tested, and the “blockade of IA-rhodamine labeling of PRMT1 (in words)” value (PRMT1 (C109); recombinant WT-PRMT1 in cell lysate) was “inactive”.

For O=C(CCl)N1CCN(S(=O)(=O)c2ccccc2F)CC1 [compound 10], the “isoTOP-ABPP ratio, cysteine P42695_C541” value [2]; 231 was 20.0 and the “isoTOP-ABPP ratio, cysteine P42695_C541” value ([2]; ramos) was 6.5.

Cn1cc(S(=O)(=O)N2CCOCC2)cc1C(=O)NC(=O)CCl [compound 11] gave an IC50 (PRMT1 (C109); recombinant WT-PRMT1 1 μM in cell lysate, fragment 1 h) of 36 µM.

For O=C(CCl)N1CCC(C(O)(c2ccccc2)c2ccccc2)CC1 [compound 20], the “catalytic activity of WT-IDH1 (NADP+ to NADPH)” value (IDH1) was “blocked in a concentration-dependent manner”.

With O=C(CCl)NC12CC3CC(CC(C3)C1)C2 [compound 21] the “isoTOP-ABPP ratio, cysteine P42695_C541” value [2]; 231 was 2.3.
